Assay results reported in ChEMBL document CHEMBL1158924, “Cytotoxic constituents of the bark of Plumeria rubra collected in Indonesia” (1990).
≈ marks a conversion by molar mass, not a printed value.

Assays:
Type in all cases: functional
[1] = Cytotoxicity against human colon cancer cells; settings: Cancer cell lines, read-out: ED50 (the source's name)
P388 = assay: Cytotoxicity against mouse P388 cells; settings: read-out: ED50 (the source's name)
[2] = Cytotoxicity against human melanoma cells; settings: Melanoma cell, read-out: ED50 (the source's name)
[3] = Cytotoxicity against human lung cancer cells; settings: Cancer cell lines, read-out: ED50 (the source's name)
[4] = Cytotoxicity against human breast cancer cells; settings: Cancer cell lines, read-out: ED50 (the source's name)
HT-1080 = assay: Cytotoxicity against human HT1080 cells; settings: read-out: ED50 (the source's name)
KB = assay: Cytotoxicity against human KB cells; settings: read-out: ED50 (the source's name)

Row | Structure (SMILES) | EC50 [1] [µg/mL] | EC50 (P388) [µg/mL] | EC50 [2] [µg/mL] | EC50 [3] [µg/mL] | EC50 [4] [µg/mL] | EC50 (HT-1080) [µg/mL] | EC50 (KB) [µg/mL]
1 | COC(=O)[C@@H]1CO[C@H](O)[C@H]2[C@@H]1C=C[C@@]21C=C([C@H](C)O)C(=O)O1 | > 50 | > 50 | > 50 | > 50 | > 50 | > 50 | > 50
2 | C[C@H](O)C1=C[C@@]2(C=C[C@@H]3C(C(=O)O)=CO[C@@H](O[C@@H]4O[C@H](CO)[C@@H](O)[C@H](O)[C@H]4O)[C@@H]32)OC1=O | > 50 | > 50 | > 50 | > 50 | > 50 | > 50 | > 50
3 | COC(=O)[C@@H]1CO[C@@H](O)[C@H]2[C@@H]1C=C[C@@]21C=C([C@H](C)O)C(=O)O1 | > 50 | > 50 | > 50 | > 50 | > 50 | > 50 | > 50
4 | C/C=C/C=C1\C=Cc2c(C(=O)OC)coc(=O)c21 [FULVOPLUMIERIN] | 1.3 (≈ 5.32 µM) | 2.5 (≈ 10.2 µM) | 0.7 (≈ 2.87 µM) | 3 (≈ 12.3 µM) | 3.5 (≈ 14.3 µM) | 3.4 (≈ 13.9 µM) | 4.6 (≈ 18.8 µM)
5 | C/C=C1/C(=O)O[C@]23C=C[C@@H]4C(C(=O)OC)=CO[C@H](O[C@@H]12)[C@@H]43 [PLUMERICIN] | 0.1 (≈ 0.345 µM) | 1.2 (≈ 4.13 µM) | 2.8 (≈ 9.65 µM) | 0.2 (≈ 0.689 µM) | 0.4 (≈ 1.38 µM) | 0.2 (≈ 0.689 µM) | 0.3 (≈ 1.03 µM)
6 | COc1cc([C@H]2OC[C@H]3[C@@H]2CO[C@@H]3c2cc(OC)c(O[C@@H]3O[C@H](CO)[C@@H](O)[C@H](O)[C@H]3O)c(OC)c2)cc(OC)c1O[C@@H]1O[C@H](CO)[C@@H](O)[C@H](O)[C@H]1O [LIRIODENDRIN] | 16 (≈ 21.5 µM) | 2.4 (≈ 3.23 µM) | 19 (≈ 25.6 µM) | 6 (≈ 8.08 µM) | 30 (≈ 40.4 µM) | 8.9 (≈ 12 µM) | 6 (≈ 8.08 µM)
7 | C/C=C1/C(=O)O[C@@]23C=C[C@H]4[C@@H](C(=O)OC)[C@H](O)O[C@@H](O[C@H]12)[C@H]43 [ALLAMANDIN] | 0.3 (≈ 0.973 µM) | 0.2 (≈ 0.649 µM) | 0.3 (≈ 0.973 µM) | 0.7 (≈ 2.27 µM) | 0.4 (≈ 1.3 µM) | 0.8 (≈ 2.59 µM) | 0.4 (≈ 1.3 µM)
8 | COC(=O)C1=CO[C@@H](O[C@@H]2O[C@H](CO)[C@@H](O)[C@H](O)[C@H]2O)[C@H]2[C@@H]1C=C[C@@]21C=C([C@H](C)O)C(=O)O1 [PLUMIERIDE] | > 50 | > 50 | > 50 | > 50 | > 50 | > 50 | > 50
9 | COC1=CC(=O)C(OC)=CC1=O | 1.4 (≈ 8.33 µM) | 2.5 (≈ 14.9 µM) | 2.7 (≈ 16.1 µM) | 1.3 (≈ 7.73 µM) | 5.2 (≈ 30.9 µM) | 3.4 (≈ 20.2 µM) | 3.8 (≈ 22.6 µM)
10 | COC(=O)C1=CO[C@@H](O[C@@H]2O[C@H](CO)[C@@H](O)[C@H](O)[C@H]2O)[C@H]2[C@@H]1C=C[C@@]21C=C([C@H](C)OC(=O)/C=C/c2ccc(O)cc2)C(=O)O1 | > 50 | > 50 | > 50 | > 50 | > 50 | > 50 | > 50
11 | C/C=C1/C(=O)O[C@@]23C=C[C@H]4C[C@H](O)O[C@@H](O[C@H]12)[C@H]43 [ALLAMCIN] | 0.3 (≈ 1.2 µM) | 0.2 (≈ 0.799 µM) | 0.9 (≈ 3.6 µM) | 1.2 (≈ 4.8 µM) | 0.1 (≈ 0.4 µM) | 3.1 (≈ 12.4 µM) | 0.3 (≈ 1.2 µM)
